# Measurements as given in patent publication US9302999B2, “Substituted triazoles as herbicides” (E. I. DU PONT DE NEMOURS AND COMPANY, priority 2012, dated 2016).
# Read-outs that look alike come from different tables or passages of the source.
# Experiments:
# Assay type in all cases: in vivo
# [1] = test system: foxtail, giant (giant foxtail, Setaria faberii); assay: Test A pre-/postemergence: foxtail, giant; details: for pest or weed control at 125 g/ha / pest or weed control at 500 g/ha: Setaria faberi, 240 h; for pest or weed control at 125 g/ha: 125 g ai/ha; for pest or weed control at 500 g/ha: 500 g ai/ha; for Foxtail, Giant plant response rating: 1000 g ai/ha
# Method in brief: (§1)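 Visual 0–100 injury ratings (0 no effect, 100 complete control) taken about ten days after treatment, relative to untreated controls. Preemergence treatment was a directed soil spray; postemergence plants were 2–10 cm tall at one- to two-leaf stage. Soil: loam/sand blend.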
# [2] = test system: winter wheat (Triticum aestivum); assay: Test C pre-/postemergence: winter wheat
# Method in brief: (§2)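 Visual injury scored 0–100 (100 = complete control) against untreated controls after 13–15 greenhouse days. Surfactant-containing solvent formulations applied either to soil after sowing (loam/sand) or over 1- to 4-leaf plants, 2–18 cm tall.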
# [3] = test system: morningglory (Ipomoea spp.); assay: Test A pre-/postemergence: morningglory; details: for pest or weed control at 125 g/ha / pest or weed control at 500 g/ha: Ipomoea, 240 h; for pest or weed control at 125 g/ha: 125 g ai/ha; for pest or weed control at 500 g/ha: 500 g ai/ha; for Morningglory plant response rating: 1000 g ai/ha
# Method in brief: as §1
# corn (Zea mays) = assay: Test C pre-/postemergence: corn
# Method in brief: as §2
# [4] = test system: wheat (Triticum aestivum); assay: Test A pre-/postemergence: wheat; details: for plant injury at 125 g/ha / plant injury at 500 g/ha: Triticum aestivum, 240 h; for plant injury at 125 g/ha: 125 g ai/ha; for plant injury at 500 g/ha: 500 g ai/ha; for Wheat plant response rating: 1000 g ai/ha
# Method in brief: as §1
# [5] = test system: nutsedge, yellow (yellow nutsedge, Cyperus esculentus); assay: Test C pre-/postemergence: nutsedge, yellow
# Method in brief: as §2
# [6] = test system: pigweed (Amaranthus retroflexus); assay: Test A pre-/postemergence: pigweed; details: for pest or weed control at 125 g/ha / pest or weed control at 500 g/ha: Amaranthus retroflexus, 240 h; for pest or weed control at 125 g/ha: 125 g ai/ha; for pest or weed control at 500 g/ha: 500 g ai/ha; for Pigweed plant response rating: 1000 g ai/ha
# Method in brief: as §1
# [7] = test system: barnyardgrass (Echinochloa crus-galli); assay: Test A pre-/postemergence: barnyardgrass; details: for pest or weed control at 125 g/ha / pest or weed control at 500 g/ha: Echinochloa crus-galli, 240 h; for pest or weed control at 125 g/ha: 125 g ai/ha; for pest or weed control at 500 g/ha: 500 g ai/ha; for Barnyardgrass plant response rating: 1000 g ai/ha
# Method in brief: as §1
# [8] = test system: velvetleaf (Abutilon theophrasti); assay: Test C pre-/postemergence: velvetleaf
# Method in brief: as §2
# [9] = test system: chickweed (common chickweed, Stellaria media); assay: Test C postemergence: chickweed
# Method in brief: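 Plants at the 1- to 4-leaf stage (2 to 18 cm tall), grown in pots of peat moss/vermiculite planting medium, received postemergence applications of the formulated test chemicals. After 13 to 15 days in a greenhouse, injury was scored visually versus controls from 0 (no effect) to 100 (complete control).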
# [10] = test system: johnsongrass (Sorghum halepense); assay: Test C pre-/postemergence: johnsongrass
# Method in brief: as §2
# [11] = test system: morningglory (Ipomoea coccinea); assay: Test C pre-/postemergence: morningglory
# Method in brief: as §2
# [12] = Postemergence, 31 g ai/ha, scale 0 to 100 (0 no effect, 100 complete control)
# [13] = Postemergence, 62 g ai/ha, scale 0 to 100 (0 no effect, 100 complete control)
# [14] = Postemergence, 125 g ai/ha, scale 0 to 100, 0 no effect, 100 complete control
# [15] = Postemergence, 250 g ai/ha, scale 0 to 100
# [16] = Preemergence, 31 g ai/ha, scale of 0 to 100, 0 is no effect, 100 is complete control
# [17] = Preemergence, 62 g ai/ha, scale of 0 to 100, 0 is no effect, 100 is complete control
# [18] = Preemergence, 125 g ai/ha, scale 0 to 100, 0 no effect, 100 complete control
# [19] = Preemergence, 250 g ai/ha, scale 0 to 100, 0 no effect, 100 complete control
# [20] = 31 g ai/ha, scale 0 to 100 (0 no effect, 100 complete control)
# [21] = Postemergence, visual rating on 0 to 100 scale (0 no effect, 100 complete control), approximately ten days
# [22] = Preemergence, 0 to 100 scale, 0 is no effect, 100 is complete control
# [23] = Postemergence, 16 g ai/ha, scale 0 to 100, 0 no effect, 100 complete control
smiles,measurement,setting,value
"Cc1nn(-c2ccc(C(F)(F)F)cc2)nc1Cc1ccnc(C(F)(F)F)c1 [Compound 47, 4-[[5-methyl-2-[4-(trifluoromethyl)phenyl]-2H-1,2,3-triazol-4-yl]methyl]-2-(trifluoromethyl)pyridine]",pest or weed control at 125 g/ha,"[1]; post-emergence, Postemergence, 0 to 100 scale, 0 is no effect, 100 is complete control, read-out: Foxtail, Giant plant response rating",80%
same,pest or weed control at 500 g/ha,"[1]; post-emergence, Postemergence, visual rating on 0 to 100 scale (0 no effect, 100 complete control), approximately ten days, read-out: Foxtail, Giant plant response rating",90%
same,pest or weed control at 125 g/ha,"[1]; pre-emergence, Preemergence, 0 to 100 scale (0 no effect, 100 complete control), read-out: Plant response rating, Foxtail, Giant",100%
same,pest or weed control at 500 g/ha,"[1]; pre-emergence, Preemergence, 0 to 100 scale, 0 is no effect, 100 is complete control, read-out: Plant response rating, Foxtail, Giant",100%
same,"Plant response rating, Wheat",[2]; [12],15
same,"Plant response rating, Wheat",[2]; [13],35
same,"Plant response rating, Wheat",[2]; [14],45
same,"Plant response rating, Wheat",[2]; [15],50
same,"Plant response rating, Wheat",[2]; [16],0
same,"Plant response rating, Wheat",[2]; [17],5
same,"Plant response rating, Wheat",[2]; [18],35
same,"Plant response rating, Wheat",[2]; [19],40
same,pest or weed control at 125 g/ha,"[3]; post-emergence, Postemergence, 0 to 100 scale, 0 is no effect, 100 is complete control, read-out: Morningglory plant response rating",90%
same,pest or weed control at 500 g/ha,"[3]; post-emergence, Postemergence, visual rating on 0 to 100 scale (0 no effect, 100 complete control), approximately ten days, read-out: Morningglory plant response rating",90%
same,pest or weed control at 125 g/ha,"[3]; pre-emergence, Preemergence, 0 to 100 scale (0 no effect, 100 complete control), read-out: Plant response rating, Morningglory",70%
same,pest or weed control at 500 g/ha,"[3]; pre-emergence, Preemergence, 0 to 100 scale, 0 is no effect, 100 is complete control, read-out: Plant response rating, Morningglory",80%
same,"Plant response rating, Corn",corn (Zea mays); [12],5
same,"Plant response rating, Corn",corn (Zea mays); [13],15
same,"Plant response rating, Corn",corn (Zea mays); [14],15
same,"Plant response rating, Corn",corn (Zea mays); [15],25
same,"Plant response rating, Corn",corn (Zea mays); [16],0
same,"Plant response rating, Corn","corn (Zea mays); Preemergence, 62 g ai/ha, scale 0 to 100, 0 no effect, 100 complete control",5
same,"Plant response rating, Corn",corn (Zea mays); [18],10
same,"Plant response rating, Corn",corn (Zea mays); [19],40
same,plant injury at 125 g/ha,"[4]; post-emergence, Postemergence, 0 to 100 scale, 0 is no effect, 100 is complete control, read-out: Wheat plant response rating",30%
same,plant injury at 500 g/ha,"[4]; post-emergence, Postemergence, visual rating on 0 to 100 scale (0 no effect, 100 complete control), approximately ten days, read-out: Wheat plant response rating",50%
same,plant injury at 125 g/ha,"[4]; pre-emergence, Preemergence, 0 to 100 scale (0 no effect, 100 complete control), read-out: Plant response rating, Wheat",30%
same,plant injury at 500 g/ha,"[4]; pre-emergence, Preemergence, 0 to 100 scale, 0 is no effect, 100 is complete control, read-out: Plant response rating, Wheat",40%
same,"Plant response rating, Nutsedge, Yellow",[5]; [12],0
same,"Plant response rating, Nutsedge, Yellow",[5]; [13],0
same,"Plant response rating, Nutsedge, Yellow",[5]; [14],0
same,"Plant response rating, Nutsedge, Yellow",[5]; [15],0
same,"Plant response rating, Nutsedge, Yellow",[5]; [16],0
same,"Plant response rating, Nutsedge, Yellow",[5]; [17],0
same,"Plant response rating, Nutsedge, Yellow",[5]; [18],0
same,"Plant response rating, Nutsedge, Yellow",[5]; [19],0
same,pest or weed control at 125 g/ha,"[6]; post-emergence, Postemergence, 0 to 100 scale, 0 is no effect, 100 is complete control, read-out: Pigweed plant response rating",100%
same,pest or weed control at 500 g/ha,"[6]; post-emergence, Postemergence, visual rating on 0 to 100 scale (0 no effect, 100 complete control), approximately ten days, read-out: Pigweed plant response rating",100%
same,pest or weed control at 125 g/ha,"[6]; pre-emergence, Preemergence, 0 to 100 scale (0 no effect, 100 complete control), read-out: Plant response rating, Pigweed",100%
same,pest or weed control at 500 g/ha,"[6]; pre-emergence, Preemergence, 0 to 100 scale, 0 is no effect, 100 is complete control, read-out: Plant response rating, Pigweed",100%
same,pest or weed control at 125 g/ha,"[7]; post-emergence, Postemergence, 0 to 100 scale, 0 is no effect, 100 is complete control, read-out: Barnyardgrass plant response rating",90%
same,pest or weed control at 500 g/ha,"[7]; post-emergence, Postemergence, visual rating on 0 to 100 scale (0 no effect, 100 complete control), approximately ten days, read-out: Barnyardgrass plant response rating",90%
same,pest or weed control at 125 g/ha,"[7]; pre-emergence, Preemergence, 0 to 100 scale (0 no effect, 100 complete control), read-out: Plant response rating, Barnyardgrass",90%
same,pest or weed control at 500 g/ha,"[7]; pre-emergence, Preemergence, 0 to 100 scale, 0 is no effect, 100 is complete control, read-out: Plant response rating, Barnyardgrass",100%
same,"Plant response rating, Velvetleaf",[8]; [12],65
same,"Plant response rating, Velvetleaf",[8]; [13],70
same,"Plant response rating, Velvetleaf",[8]; [14],80
same,"Plant response rating, Velvetleaf",[8]; [15],90
same,"Plant response rating, Velvetleaf",[8]; [16],45
same,"Plant response rating, Velvetleaf",[8]; [17],60
same,"Plant response rating, Velvetleaf",[8]; [18],90
same,"Plant response rating, Velvetleaf",[8]; [19],100
same,"Plant response rating, Chickweed",[9]; [20],80
same,"Plant response rating, Johnsongrass",[10]; [12],0
same,"Plant response rating, Johnsongrass",[10]; [13],10
same,"Plant response rating, Johnsongrass",[10]; [14],35
same,"Plant response rating, Johnsongrass",[10]; [15],50
same,"Plant response rating, Johnsongrass",[10]; [16],5
same,"Plant response rating, Johnsongrass",[10]; [17],10
same,"Plant response rating, Johnsongrass",[10]; [18],60
same,"Plant response rating, Johnsongrass",[10]; [19],95
same,"Plant response rating, Morningglory",[11]; [12],75
same,"Plant response rating, Morningglory",[11]; [13],95
same,"Plant response rating, Morningglory",[11]; [14],100
same,"Plant response rating, Morningglory",[11]; [15],100
same,"Plant response rating, Morningglory",[11]; [16],5
same,"Plant response rating, Morningglory",[11]; [17],20
same,"Plant response rating, Morningglory",[11]; [18],50
same,"Plant response rating, Morningglory",[11]; [19],65
Cc1nn(-c2ccc(C(F)(F)F)cc2)nc1Cc1cccc(C(F)(F)F)c1 [Compound 124],"Foxtail, Giant plant response rating",[1]; [21],90
same,"Foxtail, Giant plant response rating",[1]; [22],100
same,"Plant response rating, Wheat",[2]; [23],5
same,"Plant response rating, Wheat",[2]; [12],10
same,"Plant response rating, Wheat",[2]; [13],15
same,"Plant response rating, Wheat",[2]; [14],20
same,Morningglory plant response rating,[3]; [21],100
same,Morningglory plant response rating,[3]; [22],40
same,"Plant response rating, Corn",corn (Zea mays); [23],5
same,"Plant response rating, Corn",corn (Zea mays); [12],20
same,"Plant response rating, Corn",corn (Zea mays); [13],25
same,"Plant response rating, Corn",corn (Zea mays); [14],25
same,Wheat plant response rating,[4]; [21],40
same,Wheat plant response rating,[4]; [22],0
same,"Plant response rating, Nutsedge, Yellow",[5]; [23],0
same,"Plant response rating, Nutsedge, Yellow",[5]; [12],0
same,"Plant response rating, Nutsedge, Yellow",[5]; [13],0
same,"Plant response rating, Nutsedge, Yellow",[5]; [14],0
same,Pigweed plant response rating,[6]; [21],100
same,Pigweed plant response rating,[6]; [22],100
same,Barnyardgrass plant response rating,[7]; [21],70
same,Barnyardgrass plant response rating,[7]; [22],90
same,"Plant response rating, Velvetleaf",[8]; [23],45
same,"Plant response rating, Velvetleaf",[8]; [12],45
same,"Plant response rating, Velvetleaf",[8]; [13],50
same,"Plant response rating, Velvetleaf",[8]; [14],55
same,"Plant response rating, Chickweed","[9]; 16 g ai/ha, scale 0 to 100, 0 no effect, 100 complete control",45
same,"Plant response rating, Chickweed",[9]; [20],50
same,"Plant response rating, Chickweed","[9]; 62 g ai/ha, scale 0 to 100 (0 no effect, 100 complete control)",55
same,"Plant response rating, Chickweed","[9]; 125 g ai/ha, scale 0 to 100, 0 no effect, 100 complete control",55
same,"Plant response rating, Johnsongrass",[10]; [23],5
same,"Plant response rating, Johnsongrass",[10]; [12],5
same,"Plant response rating, Johnsongrass",[10]; [13],40
same,"Plant response rating, Johnsongrass",[10]; [14],45
same,"Plant response rating, Morningglory",[11]; [23],15
same,"Plant response rating, Morningglory",[11]; [12],15
same,"Plant response rating, Morningglory",[11]; [13],40
same,"Plant response rating, Morningglory",[11]; [14],40
